Source: patent publication US20180353483A1, “PHARMACEUTICAL COMPOSITIONS AND METHODS FOR INDOLEAMINE, 2, 3-DIOXYGENASE INHIBITION AND INDICATIONS THEREFOR” (Incyte Corporation, priority 2015, published 2018)
Read-outs that look alike come from different tables or passages of the source.

Assay: Pharmacokinetics of Compound 1 in combination with MK-3475 in subjects with various cancers
Assay type: in vivo, human
Settings: human, plasma, oral; for tmax: read-out: tmax; for concentration at 8 day (cycle 1): read-out: Cmin
Procedure: The subjects were not limited to a specific cancers and study include subjects with various cancers. […] One treatment cycle consisted of 21 days. […] Additional subjects were enrolled in a cohort to achieve the minimum of 3 evaluable subjects if dropouts or dose interruptions or reductions occur that result in a subject being non-evaluable for DLTs. […] An additional safety cohort was opened at 100 mg BID in parallel to 300 mg BID being tested. This may also be limited to subjects with melanoma, NSCLC, or specific cancer types from among those included in Phase 1. The RP2D was selected from the evaluated safety expansions.
If a dose was missed by more than 4 hours, that dose was skipped and was resumed at the scheduled time.
Pharmacokinetic samples were obtained at the visits of Cycle 1 Day 1, Cycle 1 Day 8 and Cycle 2 Day 1. […] The exact date and time of the PK blood draws were recorded in the eCRF along with the date and time of the last dose of study drug and details of the last meal preceding the blood draw.
The planned PK time points were used for preliminary PK analyses.

[1] = 100 mg BID, Diagnosis DLBCL, steady state C1D8, individual values of 2 subjects
[2] = 100 mg BID, Diagnosis GU, steady state C1D8, mean ± SD
[3] = 100 mg BID, Diagnosis NSCLC PD-L1 High, steady state C1D8, mean ± SD

`NS(=O)(=O)NCCNc1nonc1C(=NO)Nc1ccc(F)c(Br)c1` [Compound 1, 4-({2-[(aminosulfonyl)amino]ethyl}amino)-N-(3-bromo-4-fluorophenyl)-N′-hydroxy-1,2,5-oxadiazole-3-carboximidamide] showed an AUC(0-t) (100 mg BID, All diagnoses, steady state C1D8, geometric mean, read-out: AUC0-12 h (converted)) of 4.26 µM·h, a Cmax (100 mg BID, All diagnoses, steady state C1D8, mean ± SD) of 1100 ± 467 nM and an AUC(0-t) (100 mg BID, All diagnoses, steady state C1D8, mean ± SD, read-out: AUC0-12 h (converted)) of 4.62 ± 2.14 µM·h. For the same compound, the Cmax [1] was 883 nM, the AUC(0-t) (100 mg BID, Diagnosis DLBCL, steady state C1D8, individual values of 2 subjects, read-out: AUC0-12 h (converted)) was 5.32 µM·h and the tmax [1] was 4 h. The Cmax (100 mg BID, Diagnosis GU, steady state C1D8, geometric mean) was 1030 nM, the AUC(0-t) (100 mg BID, Diagnosis GU, steady state C1D8, geometric mean, read-out: AUC0-12 h (converted)) was 4.41 µM·h and the Cmax [2] was 1100 ± 400 nM. It also gave an AUC(0-t) (100 mg BID, Diagnosis GU, steady state C1D8, mean ± SD, read-out: AUC0-12 h (converted)) of 4.98 ± 3.01 µM·h, a concentration at 8 day (cycle 1) [2] of 154 ± 203 nM and a Cmax (100 mg BID, Diagnosis MEL, steady state C1D8, geometric mean) of 945 nM. For the same compound, the AUC(0-t) (100 mg BID, Diagnosis MEL, steady state C1D8, geometric mean, read-out: AUC0-12 h (converted)) was 3.57 µM·h, the Cmax (100 mg BID, Diagnosis MEL, steady state C1D8, mean ± SD) was 1000 ± 347 nM and the AUC(0-t) (100 mg BID, Diagnosis MEL, steady state C1D8, mean ± SD, read-out: AUC0-12 h (converted)) was 3.68 ± 0.852 µM·h. The AUC(0-t) (100 mg BID, Diagnosis NSCLC PD-L1 High, steady state C1D8, geometric mean, read-out: AUC0-12 h (converted)) was 4.15 µM·h, the Cmax [3] was 939 ± 549 nM and the AUC(0-t) (100 mg BID, Diagnosis NSCLC PD-L1 High, steady state C1D8, mean ± SD, read-out: AUC0-12 h (converted)) was 4.43 ± 1.81 µM·h. It also gave a concentration at 8 day (cycle 1) [3] of 159 ± 77.7 nM, a tmax (100 mg BID, Diagnosis NSCLC PD-L1 High, steady state C1D8, median) of 3 h and a Cmax (100 mg BID, Diagnosis NSCLC PD-L1 Low/NE, steady state C1D8, geometric mean) of 867 nM. It also gave an AUC(0-t) (100 mg BID, Diagnosis NSCLC PD-L1 Low/NE, steady state C1D8, geometric mean, read-out: AUC0-12 h (converted)) of 4.3 µM·h, a Cmax (100 mg BID, Diagnosis NSCLC PD-L1 Low/NE, steady state C1D8, mean ± SD) of 879 ± 156 nM and an AUC(0-t) (100 mg BID, Diagnosis NSCLC PD-L1 Low/NE, steady state C1D8, mean ± SD, read-out: AUC0-12 h (converted)) of 4.35 ± 0.828 µM·h. It also gave a Cmax (100 mg BID, Diagnosis OC, steady state C1D8, geometric mean) of 1110 nM, an AUC(0-t) (100 mg BID, Diagnosis OC, steady state C1D8, geometric mean, read-out: AUC0-12 h (converted)) of 4.34 µM·h and a Cmax (100 mg BID, Diagnosis OC, steady state C1D8, mean ± SD) of 1200 ± 487 nM. It also gave an AUC(0-t) (100 mg BID, Diagnosis OC, steady state C1D8, mean ± SD, read-out: AUC0-12 h (converted)) of 4.66 ± 2.11 µM·h, a Cmax (100 mg BID, Diagnosis SCCHN, steady state C1D8, geometric mean) of 821 nM and an AUC(0-t) (100 mg BID, Diagnosis SCCHN, steady state C1D8, geometric mean, read-out: AUC0-12 h (converted)) of 3.81 µM·h. For the same compound, the Cmax (100 mg BID, Diagnosis SCCHN, steady state C1D8, mean ± SD) was 987 ± 612 nM, the AUC(0-t) (100 mg BID, Diagnosis SCCHN, steady state C1D8, mean ± SD, read-out: AUC0-12 h (converted)) was 4.29 ± 2.3 µM·h and the Cmax (100 mg BID, Diagnosis TNBC, steady state C1D8, geometric mean) was 1150 nM. The AUC(0-t) (100 mg BID, Diagnosis TNBC, steady state C1D8, geometric mean, read-out: AUC0-12 h (converted)) was 4.69 µM·h, the Cmax (100 mg BID, Diagnosis TNBC, steady state C1D8, mean ± SD) was 1210 ± 433 nM and the AUC(0-t) (100 mg BID, Diagnosis TNBC, steady state C1D8, mean ± SD, read-out: AUC0-12 h (converted)) was 5.01 ± 2.09 µM·h. For the same compound, the Cmax (100 mg BID, Dose Reduction By C4D1 subjects (Table 13), steady state C1D8, geometric mean) was 953 nM, the AUC(0-t) (100 mg BID, Dose Reduction By C4D1 subjects (Table 13), steady state C1D8, geometric mean, read-out: AUC0-12 h (converted)) was 4.42 µM·h and the Cmax (100 mg BID, Dose Reduction By C4D1 subjects (Table 13), steady state C1D8, mean ± SD) was 1040 ± 551 nM. For the same compound, the AUC(0-t) (100 mg BID, Dose Reduction By C4D1 subjects (Table 13), steady state C1D8, mean ± SD, read-out: AUC0-12 h (converted)) was 5.1 ± 3.59 µM·h, the Cmax (100 mg, All diagnoses, first dose, geometric mean) was 830 nM and the AUC(0-t) (100 mg, All diagnoses, first dose, geometric mean, read-out: AUC0-t) was 2.63 µM·h. For the same compound, the Cmax (100 mg, All diagnoses, first dose, mean ± SD) was 937 ± 469 nM, the AUC(0-t) (100 mg, All diagnoses, first dose, mean ± SD, read-out: AUC0-t) was 2.87 ± 1.19 µM·h and the AUC(0-t) (100 mg, Cohort 3, 100 mg BID, steady state C1D8, geometric mean, read-out: AUC0-12 h (converted)) was 3.67 µM·h. For the same compound, the Cmax (100 mg, Cohort 3, 100 mg BID, steady state C1D8, mean ± SD) was 956 ± 497 nM, the AUC(0-t) (100 mg, Cohort 3, 100 mg BID, steady state C1D8, mean ± SD, read-out: AUC0-12 h (converted)) was 3.91 ± 1.35 µM·h and the Cmax (100 mg, Cohort 3, 100 mg, first dose, geometric mean) was 521 nM. It also gave an AUC(0-t) (100 mg, Cohort 3, 100 mg, first dose, geometric mean, read-out: AUC0-t) of 1.89 µM·h, a Cmax (100 mg, Cohort 3, 100 mg, first dose, mean ± SD) of 632 ± 508 nM and an AUC(0-t) (100 mg, Cohort 3, 100 mg, first dose, mean ± SD, read-out: AUC0-t) of 2.09 ± 1.15 µM·h. The tmax (100 mg, Cohort 3, 100 mg, first dose, median) was 4 h, the AUC(0-t) (100 mg, Cohort 5, 100 mg BID, steady state C1D8, geometric mean, read-out: AUC0-12 h (converted)) was 3.53 µM·h and the Cmax (100 mg, Cohort 5, 100 mg BID, steady state C1D8, mean ± SD) was 905 ± 421 nM. The AUC(0-t) (100 mg, Cohort 5, 100 mg BID, steady state C1D8, mean ± SD, read-out: AUC0-12 h (converted)) was 3.79 ± 1.43 µM·h, the Cmax (100 mg, Cohort 5, 100 mg, first dose, geometric mean) was 787 nM and the AUC(0-t) (100 mg, Cohort 5, 100 mg, first dose, geometric mean, read-out: AUC0-t) was 2.46 µM·h. The Cmax (100 mg, Cohort 5, 100 mg, first dose, mean ± SD) was 852 ± 340 nM, the AUC(0-t) (100 mg, Cohort 5, 100 mg, first dose, mean ± SD, read-out: AUC0-t) was 2.58 ± 0.778 µM·h and the tmax (100 mg, Cohort 5, 100 mg, first dose, median) was 1.5 h. The Cmax (100 mg, Diagnosis DLBCL, first dose, geometric mean) was 664 nM.
